Here are results for three molecules from patent publication EP4596574A1, “GLP-1/GCG/GIP TRIPLE-RECEPTOR AGONIST AND USE THEREOF” (Sunshine Lake Pharma Co., Ltd., priority 2022, dated 2024).

Molecules are shown by their SMILES. Where two headings read alike, the source gives them in different places. Marks after values point to notes of the source that are not given here.

The target of series [1] is T1, GIPR (Homo sapiens, UniProt P48546).
T1 construct: expressed in transfected cells; host or cells: HEK293 (HEK293-GIPR)
T1 sequence (P48546 22-466): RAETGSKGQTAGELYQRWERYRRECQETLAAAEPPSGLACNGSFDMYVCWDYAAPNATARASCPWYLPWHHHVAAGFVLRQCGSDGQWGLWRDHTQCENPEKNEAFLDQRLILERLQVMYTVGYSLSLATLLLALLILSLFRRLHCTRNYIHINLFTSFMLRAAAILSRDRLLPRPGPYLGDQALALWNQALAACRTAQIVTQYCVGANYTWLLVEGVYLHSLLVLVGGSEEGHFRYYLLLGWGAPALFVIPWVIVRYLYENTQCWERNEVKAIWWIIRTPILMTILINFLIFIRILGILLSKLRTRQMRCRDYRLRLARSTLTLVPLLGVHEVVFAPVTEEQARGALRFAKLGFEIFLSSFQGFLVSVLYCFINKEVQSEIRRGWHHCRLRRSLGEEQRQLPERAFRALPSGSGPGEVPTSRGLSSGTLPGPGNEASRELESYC
As to the kind of experiment: In vitro cell activity, cAMP production in HEK293 cells expressing GIPR. The format is cell-based. The method in brief: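 cAMP accumulation is quantified by homogeneous TR-FRET (cAMP-d2 plus anti-cAMP cryptate) in GIPR-expressing HEK293 cells seeded from a 4×10^5 cells/mL suspension and treated with compound. The signal ratio is plotted against concentration and fitted to a four-parameter curve to give EC50.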

Series [2] can be described thus: Pharmacokinetic study in rats, single subcutaneous injection. Particulars: male, Sprague Dawley, in vivo, sc, rat. Here is the method:
The pharmacokinetic study of each polypeptide compound prepared in Example 1 was conducted using male Sprague Dawley rats. There were 3 male rats in each group. […] The dose was 50 nmol/kg, and a single subcutaneous injection was given (see Table 3 for specific peptide compounds). After administration, plasma was collected on the specified days and time points, and the concentration of each peptide compound in the plasma was detected by LC-MS/MS method. The pharmacokinetic parameters were obtained based on the concentration data, which were used to describe the pharmacokinetic properties of the peptide in rats after subcutaneous injection. Table 3: Summary of pharmacokinetic parameters of some triple-target peptides in rats

Series [3] addresses T2, GLP-1R (Homo sapiens, UniProt P43220).
T2 construct: expressed in transfected cells; host or cells: HEK293 (HEK293-GLP-1R)
Kind of series: In vitro cell activity, cAMP production in HEK293 cells expressing GLP-1R. Format: cell-based. Summed up: (§1)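 Cells were plated at 4×10^5 cells/mL, and detection reagents (cAMP-d2, anti-cAMP cryptate, 1:1) were incubated 1 h at room temperature in the dark or overnight at 4 °C.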

The target in series [4] is T3, GCGR (Homo sapiens, UniProt P47871).
T3 construct: expressed in transfected cells; host or cells: HEK293 (HEK293-GCGR)
T3 sequence (P47871 26-477, species assumed): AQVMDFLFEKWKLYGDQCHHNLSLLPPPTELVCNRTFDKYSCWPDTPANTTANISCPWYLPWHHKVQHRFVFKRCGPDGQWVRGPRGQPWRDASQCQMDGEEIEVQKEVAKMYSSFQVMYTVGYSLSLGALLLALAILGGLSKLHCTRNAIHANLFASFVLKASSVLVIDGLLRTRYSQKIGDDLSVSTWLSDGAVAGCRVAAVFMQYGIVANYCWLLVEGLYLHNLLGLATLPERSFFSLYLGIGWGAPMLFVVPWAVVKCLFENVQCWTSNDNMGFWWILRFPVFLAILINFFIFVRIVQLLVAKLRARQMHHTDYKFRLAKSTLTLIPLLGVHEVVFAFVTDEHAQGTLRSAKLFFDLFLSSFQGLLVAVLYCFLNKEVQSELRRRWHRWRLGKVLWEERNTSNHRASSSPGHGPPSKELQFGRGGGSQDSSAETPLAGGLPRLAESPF
Kind of series: In vitro cell activity, cAMP production in HEK293 cells expressing GCGR. Format: cell-based. Summed up:
as §1

The nature of series [5]: Glucose tolerance assessment in normal C57BL/6 mice (Example 5). The conditions noted are these: 3 nmol/kg s.c. single dose, 24 h after administration. The format is in vivo. The procedure: Twelve hours after the single administration, the animals were fasted for 12 hours and had free access to water. Blood was collected from the tail vein to determine the basal blood glucose level of each group of animals, and then 2 g/kg glucose solution was injected intraperitoneally. Blood glucose was tested at 15, 30, 60, and 90 min after glucose administration. The blood glucose concentration-time curve was drawn according to the blood glucose values measured at different time points, and the AUC0~90min of each dose group was calculated as shown in Table 5 and Figure 2. Table 5: Effects of single administration of HEC-PT86, HEC-PT96, HEC-PT112, HEC-PT113, HEC-PT114, and HEC-PT119 on glucose tolerance in normal C57 mice 24 h after administration

Series [6] can be described thus: Glucose tolerance assessment in normal C57BL/6 mice (Example 4). The format is in vivo. The method in brief: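 Twelve hours after a single administration, mice were fasted 12 h and then given 2 g/kg glucose i.p. Tail-vein blood glucose was measured at baseline and at 15, 30, 60 and 90 min. AUC0–90min was calculated per dose group at 24 h post-dose.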
Where [7] appears, read: 50 nmol/kg single subcutaneous injection, plasma.
Setting [8] is: 50 nmol/kg single subcutaneous injection, plasma, read-out: T1/2 (converted).
Where [9] appears, read: 50 nmol/kg single subcutaneous injection, plasma, read-out: Tmax.

T2 sequence (P43220 24-463, species assumed): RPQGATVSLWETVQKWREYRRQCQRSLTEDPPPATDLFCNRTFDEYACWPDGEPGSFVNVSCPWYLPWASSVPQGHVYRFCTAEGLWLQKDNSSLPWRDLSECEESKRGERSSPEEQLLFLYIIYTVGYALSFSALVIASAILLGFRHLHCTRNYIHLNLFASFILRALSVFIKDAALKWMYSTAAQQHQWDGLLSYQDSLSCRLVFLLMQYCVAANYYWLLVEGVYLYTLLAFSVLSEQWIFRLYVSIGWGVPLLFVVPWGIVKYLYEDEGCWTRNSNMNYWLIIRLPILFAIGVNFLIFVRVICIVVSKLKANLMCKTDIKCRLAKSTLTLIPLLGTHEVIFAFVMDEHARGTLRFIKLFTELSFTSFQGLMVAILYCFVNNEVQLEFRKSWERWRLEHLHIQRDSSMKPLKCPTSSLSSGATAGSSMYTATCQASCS

As to `CC[C@H](C)[C@H](NC(=O)[C@H](Cc1ccccc1)NC(=O)[C@H](C)NC(=O)[C@H](CCCNC(=N)N)NC(=O)[C@H](CCC(N)=O)NC(=O)[C@H](CCCNC(=N)N)NC(=O)[C@H](CCCCNC(=O)COCCOCCNC(=O)CC[C@H](NC(=O)CCCCCCCCCCCCCCCCC(=O)O)C(=O)O)NC(=O)[C@H](CCC(=O)O)NC(=O)[C@H](CC(=O)O)NC(=O)[C@H](CC(C)C)NC(=O)[C@H](CC(C)C)NC(=O)[C@@H](NC(=O)[C@H](CO)NC(=O)[C@H](Cc1ccc(O)cc1)NC(=O)[C@H](CC(=O)O)NC(=O)[C@H](CO)NC(=O)[C@@H](NC(=O)[C@](C)(Cc1ccccc1F)NC(=O)[C@@H](NC(=O)CNC(=O)[C@H](Cc1c[nH]cn1)NC(=O)C(C)(C)NC(=O)[C@@H](N)Cc1ccc(O)cc1)[C@@H](C)O)[C@@H](C)O)[C@@H](C)CC)C(=O)N[C@@H](CCC(=O)O)C(=O)N[C@@H](Cc1ccc(O)cc1)C(=O)N[C@@H](CC(C)C)C(=O)N[C@@H](CC(C)C)C(=O)N[C@@H](C)C(=O)NCC(=O)NCC(=O)N1CCC[C@H]1C(=O)N[C@@H](CO)C(=O)N[C@@H](CO)C(=O)NCC(=O)N[C@@H](C)C(=O)N1CCC[C@H]1C(=O)N1CCC[C@H]1C(=O)N1CCC[C@H]1C(=O)N[C@@H](CO)C(=O)O` [HEC-PT119], in series [1], a half-maximal response (EC50) required 0.0484 nM. In series [2] (setting [7]), this molecule returned an AUC(0-inf) of 43800 ± 10700 ng·h/mL, an AUC(0-t) of 43500 ± 10700 ng·h/mL and a Cmax of 974 ± 248 ng/mL. The half-life in series [2] (setting [8]) was 16 ± 1.6 h. In addition, the Tmax in series [2] (setting [9]) was 19 ± 9.2 h. Also, the EC50 in series [3] amounted to 0.189 nM. In series [4], this molecule returned an EC50 of 0.266 nM. Besides, the “Blood glucose level (mM) 15 min” value in series [5] (15 min after 2 g/kg glucose i.p.) was determined as 14.0 ± 2.2 mM. For the same molecule, in series [5] (30 min after 2 g/kg glucose i.p.), the “Blood glucose level (mM) 30 min” value was 10.8 ± 1.8 mM. For the same molecule, the “Blood glucose level (mM) 60 min” value in series [5] (60 min after 2 g/kg glucose i.p.) was found to be 7.8 ± 0.7 mM. The “Blood glucose level (mM) 90 min” value in series [5] (90 min after 2 g/kg glucose i.p.) amounted to 6.7 ± 0.7 mM. Also, in series [5] (basal before 2 g/kg glucose i.p.), the “Blood glucose level (mM) 0 min” value was 4.1 ± 0.4 mM. In series [5] (blood glucose AUC, 2 g/kg glucose i.p.), the AUC0-90 min is 817.4±95.1^a.

Regarding `CC[C@H](C)[C@H](NC(=O)[C@H](Cc1ccccc1)NC(=O)[C@H](C)NC(=O)[C@H](CCC(N)=O)NC(=O)[C@H](CCC(N)=O)NC(=O)[C@H](CCCNC(=N)N)NC(=O)[C@H](CCCCNC(=O)COCCOCCNC(=O)CC[C@H](NC(=O)CCCCCCCCCCCCCCCCC(=O)O)C(=O)O)NC(=O)[C@H](CCC(=O)O)NC(=O)[C@H](CC(=O)O)NC(=O)[C@H](CC(C)C)NC(=O)[C@H](CC(C)C)NC(=O)[C@@H](NC(=O)[C@H](CO)NC(=O)[C@H](Cc1ccc(O)cc1)NC(=O)[C@H](CC(=O)O)NC(=O)[C@H](CO)NC(=O)[C@@H](NC(=O)[C@](C)(Cc1ccccc1F)NC(=O)[C@@H](NC(=O)CNC(=O)[C@H](CCC(N)=O)NC(=O)C(C)(C)NC(=O)[C@@H](N)Cc1ccc(O)cc1)[C@@H](C)O)[C@@H](C)O)[C@@H](C)CC)C(=O)N[C@@H](CCC(=O)O)C(=O)N[C@@H](Cc1ccc(O)cc1)C(=O)N[C@@H](CC(C)C)C(=O)N[C@@H](CC(C)C)C(=O)N[C@@H](CCC(=O)O)C(=O)NCC(=O)NCC(=O)N1CCC[C@H]1C(=O)N[C@@H](CO)C(=O)N[C@@H](CO)C(=O)NCC(=O)N[C@@H](C)C(=O)N1CCC[C@H]1C(=O)N1CCC[C@H]1C(=O)N1CCC[C@H]1C(=O)N[C@@H](CO)C(=O)O` [HEC-PT82], a half-maximal effect in series [1] (EC50) was put at 0.0831 nM. In series [2] (setting [7]), this molecule had an AUC(0-inf) of 29400 ± 3050 ng·h/mL, an AUC(0-t) of 29100 ± 3030 ng·h/mL and a Cmax of 836 ± 217 ng/mL. Moreover, the half-life in series [2] (setting [8]) is 17 ± 0.8 h. The Tmax in series [2] (setting [9]) is 8.7 ± 2.3 h. Further, in series [3], the EC50 came to 0.36 nM. Besides, the “Blood glucose level (mM) 15 min” value in series [6] (3 nmol/kg s.c. single dose, 24 h after administration, 15 min after 2 g/kg glucose i.p.) came out at 12.4 ± 4.3 mM. Also, the “Blood glucose level (mM) 30 min” value in series [6] (3 nmol/kg s.c. single dose, 24 h after administration, 30 min after 2 g/kg glucose i.p.) was 7.6 ± 1.5 mM. Further, in series [6] (3 nmol/kg s.c. single dose, 24 h after administration, 60 min after 2 g/kg glucose i.p.), the “Blood glucose level (mM) 60 min” value is 6.9 ± 0.8 mM. The “Blood glucose level (mM) 90 min” value in series [6] (3 nmol/kg s.c. single dose, 24 h after administration, 90 min after 2 g/kg glucose i.p.) amounted to 6.6 ± 0.6 mM. For the same molecule, the “Blood glucose level (mM) 0 min” value in series [6] (3 nmol/kg s.c. single dose, 24 h after administration, basal before 2 g/kg glucose i.p.) is 3.8 ± 0.6 mM. Moreover, the “improvement of glucose tolerance compared with LY3298176” value in series [6] (24 hours after a single administration, 3 nmol/kg) is given as “more effective in improving glucose tolerance than the positive control LY3298176”. Besides, the AUC0-90 min in series [6] (blood glucose AUC, 3 nmol/kg s.c. single dose, 24 h after administration, 2 g/kg glucose i.p.) is 691.8±116.4^a. Further, the response in series [4] was half-maximal at 0.615 nM (EC50).

Consider `CC[C@H](C)[C@H](NC(=O)[C@H](Cc1ccccc1)NC(=O)[C@H](C)NC(=O)[C@H](CCC(N)=O)NC(=O)[C@H](CCC(N)=O)NC(=O)[C@H](CCCNC(=N)N)NC(=O)[C@H](CCCCNC(=O)COCCOCCNC(=O)CC[C@H](NC(=O)CCCCCCCCCCCCCCCCCCC(=O)O)C(=O)O)NC(=O)[C@H](CCC(=O)O)NC(=O)[C@H](CC(=O)O)NC(=O)[C@H](CC(C)C)NC(=O)[C@H](CC(C)C)NC(=O)[C@@H](NC(=O)[C@H](CO)NC(=O)[C@H](Cc1ccc(O)cc1)NC(=O)[C@H](CC(=O)O)NC(=O)[C@H](CO)NC(=O)[C@@H](NC(=O)[C@](C)(Cc1ccccc1F)NC(=O)[C@@H](NC(=O)CNC(=O)[C@H](Cc1c[nH]cn1)NC(=O)C(C)(C)NC(=O)[C@@H](N)Cc1ccc(O)cc1)[C@@H](C)O)[C@@H](C)O)[C@@H](C)CC)C(=O)N[C@@H](CCC(=O)O)C(=O)N[C@@H](Cc1ccc(O)cc1)C(=O)N[C@@H](CC(C)C)C(=O)N[C@@H](CC(C)C)C(=O)N[C@@H](CCC(=O)O)C(=O)NCC(=O)NCC(=O)N1CCC[C@H]1C(=O)N[C@@H](CO)C(=O)N[C@@H](CO)C(=O)NCC(=O)N[C@@H](C)C(=O)N1CCC[C@H]1C(=O)N1CCC[C@H]1C(=O)N1CCC[C@H]1C(=O)N[C@@H](CO)C(=O)O` [HEC-PT93], for which the EC50 in series [1] (HEK293-GIPR cells, cAMP, read-out: GIPR (EC50)) amounted to 0.159 nM; in series [3] (HEK293-GLP-1R cells, cAMP, read-out: GLP-1R (EC50)) it was 1.17 nM; in series [4] (HEK293-GCGR cells, cAMP, read-out: GCGR (EC50)), 0.354 nM. Also, the Tmax in series [2] came out at 25 ± 2.3 h. In series [2] (50 nmol/kg), the half-life was 19 ± 1.2 h.
